In patent US4874600A, “No-carrier-added [1^11 c]putrescine” (The United States of America as Represented by the United …, priority 1986, dated 1989):
Values belong to the compound of their own block, whether it stands above or below them.

Assays:
in vivo = conditions: mouse
Protocol: Male Swiss albino mice (BNL strain, 20-32 g) were used in this study. No-carrier-added [1-^11 C]putrescine (0.05-0.20 μCi/mouse of specific activity greater than 1.4 Ci/μmol; 36-140 pmol/mouse) was injected by tail vein into mice and the animals were killed by cervical dislocation at the desired time interval (5, 30 and 60 minutes). The various organs were rapidly removed, blotted free of blood and placed in preweighed counting vials and the vials were sealed. Tissue samples as well as injection standards were counted in a Packard automated sodium iodide well counter. Both percent injected dose per gram of tissue and percent injected dose per organ were determined from the decay corrected activity.

transplanted rat glioma = conditions: Volkow et al. 1983, cited from earlier work

tissue uptake at 5 min (in vivo; iv): 1.37 ± 0.18 %ID/g
tissue uptake at 0.5 h (in vivo; iv): 0.82 ± 0.11 %ID/g
tissue uptake at 1 h (in vivo; iv): 0.76 ± 0.46 %ID/g
Tissue distribution, Brain (in vivo; iv, 5 min): 0.12 ± 0.01 % Dose/Organ
Tissue distribution, Heart (in vivo; iv, 5 min): 0.19 ± 0.04 % Dose/Organ
Tissue distribution, Kidney (in vivo; iv, 5 min): 10.5 ± 2.0 % Dose/Organ
Tissue distribution, Liver (in vivo; iv, 5 min): 5.96 ± 1.2 % Dose/Organ
Tissue distribution, Lungs (in vivo; iv, 5 min): 0.57 ± 0.08 % Dose/Organ
Tissue distribution, Small Intestine (in vivo; iv, 5 min): 13.7 ± 5.0 % Dose/Organ
Tissue distribution, Spleen (in vivo; iv, 5 min): 0.57 ± 0.35 % Dose/Organ
Tissue distribution, Brain (in vivo; iv, 30 min): 0.15 ± 0.01 % Dose/Organ
Tissue distribution, Heart (in vivo; iv, 30 min): 0.15 ± 0.02 % Dose/Organ
Tissue distribution, Kidney (in vivo; iv, 30 min): 2.63 ± 0.36 % Dose/Organ
Tissue distribution, Liver (in vivo; iv, 30 min): 4.85 ± 0.75 % Dose/Organ
Tissue distribution, Lungs (in vivo; iv, 30 min): 0.48 ± 0.08 % Dose/Organ
Tissue distribution, Small Intestine (in vivo; iv, 30 min): 7.61 ± 2.00 % Dose/Organ
Tissue distribution, Spleen (in vivo; iv, 30 min): 0.56 ± 0.25 % Dose/Organ
Tissue distribution, Brain (in vivo; iv, 60 min): 0.13 ± 0.01 % Dose/Organ
Tissue distribution, Heart (in vivo; iv, 60 min): 0.12 ± 0.01 % Dose/Organ
Tissue distribution, Kidney (in vivo; iv, 60 min): 1.27 ± 0.21 % Dose/Organ
Tissue distribution, Liver (in vivo; iv, 60 min): 3.70 ± 0.50 % Dose/Organ
Tissue distribution, Lungs (in vivo; iv, 60 min): 0.43 ± 0.08 % Dose/Organ
Tissue distribution, Small Intestine (in vivo; iv, 60 min): 4.40 ± 1.66 % Dose/Organ
Tissue distribution, Spleen (in vivo; iv, 60 min): 0.48 ± 0.16 % Dose/Organ
SMILES: NCCC[11CH2]N [no-carrier-added [1-^11 C]putrescine, [1-^11 C]putrescine]
accumulation of activity in normal brain compared with other tissues (in words) (in vivo): less in the normal brain than for other tissues
tissues of main uptake (in words) (in vivo): taken up by the liver, kidneys, and small intestine

SMILES: NCCCCN [putrescine]
in vivo uptake into transplanted rat glioma relative to normal brain tissue (transplanted rat glioma; transplanted rat glioma vs normal brain tissue): 35 times greater
metabolism to spermine by the tumor (in words) (transplanted rat glioma; transplanted rat glioma, in contrast to adjacent normal brain tissue): rapid
